The values below are quoted from earlier work in patent US7601757B2, “Lipid system and methods of use” (Abbott Laboratories, priority 2003, dated 2009).

Data set [1] relates to obese individuals with markers of insulin resistance. Particulars: diets rich in alpha-linolenic acid as margarine and muffins made with flaxseed oil.
Data set [2] deals with genetically insulin-resistant diabetic mice (KK-Ay). Particulars: 21 days after daily administration by gavage.

As for `CC/C=C\C/C=C\C/C=C\CCCCCCCC(=O)O` [alpha-linolenic acid], the Insulin sensitivity result in data set [1] is listed as “decreased”. In addition, in data set [2], the “Blood glucose response to insulin” value was “significant improvement”.
